Data taken from paper PMC6770581, “New Thalidomide-Resembling Dicarboximides Target ABC50 Protein and Show Antileukemic and Immunomodulatory Activities” (Biomolecules, 2019).

Key:
Type in all cases: cell-based, human
[1] = system: caspase 3 and 7; assay: Caspase-3/7 activity (Apo-ONE fluorescent assay) in MOLT-4 cells; conditions: 5× IC50, 18 h, normalized to 1% DMSO
Description: (§1) Louis, MO). The induction of cell apoptosis was analyzed by Apo-ONE® Homogeneous Caspase-3/7 Assay (Promega, Madison, WI, USA). […] The fluorescence in each well was measured in triplicate (excitation at 485 nm, emission measured at 520 nm) using a microplate reader FLUOStar Omega (BMG-Labtech, Offenburg, Germany). For normalization of the data, the caspase activity in the control cells (exposed to 1% DMSO) was taken as 1.0. […] Luminescence was measured (in triplicate) using a microplate reader FLUOStar Omega. For normalization of the data, the caspase activity in the control cells (exposed to 1% DMSO) was taken as 1.0.

[2] = system: K562 cells; assay: Annexin V/PI or 7-AAD flow cytometry of apoptosis, K562; conditions: K562, 5× IC50 (3 10 µM, 6 5 µM, 5 5 µM), staurosporine 1 µM; different incubation times for 3, 6 and 5
Description: (§2) The phosphatidylserine on the extracellular side of cell membranes was quantified using an FITC Annexin V Apoptosis Detection Kit I (BD Pharmingen, San Diego, CA, USA) according to the manufacturer’s instruction. 10^6 cells were seeded on a 6-well plate (Nunc). […] The control cells were exposed to 1% DMSO or 1μM staurosporine. After treatment the cells were centrifuged at 700 rpm (120× g) for 5 min, washed twice with cold PBS and then resuspended in 1x binding buffer to a density of 10^6 cells/ml. 100 µL of the resuspended cells was stained in the dark with 5 μl of Annexin V-fluoroscein isothiocyanate (FITC) solution and 10 µL propidium iodide (PI) solution for 15 min at room temperature. The samples were then diluted with 400 μL of a binding buffer and within 1 h analyzed with a flow cytometer (BD FACSCalibur^TM, BD Biosciences, San Jose, CA, USA). After treatment, four populations of cells were assessed: (1) viable (neither apoptotic nor necrotic, Annexin V-FITC and PI negative), (2) apoptotic (Annexin V-FITC positive and PI negative), (3) late apoptotic (Annexin V-FITC and PI positive), and (4) necrotic (Annexin V-FITC negative and PI positive).
0.15 × 10^6 cells/ml were seeded on a 6-well plate (Nunclon, Thermo Fisher Scientific, Waltham, MA, USA). Following 24 h preincubation the cells were treated with either the compound or 1% DMSO (control) for 24 or 48 h. After indicated time, the cells were washed with cold PBS (w/o Mg^2+, Ca^2+), stained with Annexin V (FITC Annexin V Apoptosis Detection Kit with 7-aminoactinomycin D (7-AAD), Biolegend, San Diego, CA, USA) according to manufacturer instructions and analysed using BD FACSCalibur flow cytometer. Obtained Flow Cytometry Standard files were analyzed using BD FACSDiva Software (FACSDiva Version 6.1.3, Becton Dickinson Biosciences, San Jose, CA, USA). The experiment was performed three times in at least two technical replicates.

[3] = system: MOLT-4 cells; assay: Annexin V/PI flow cytometry of apoptosis, MOLT-4; conditions: MOLT-4, 3 h, 5× IC50 (3 45 µM, 6 20 µM, 5 100 µM)
Description: as §2

[4] = system: caspases 8/9; assay: Caspase-Glo 8 and 9 luminescent activity assay in K562 cells; conditions: K562, 5× IC50, 6 h, control 1% DMSO = 1.0
Description: as §1

[5] = system: caspases 8/9; assay: Caspase-Glo 8 and 9 luminescent activity assay in MOLT-4 cells; conditions: MOLT-4, 5× IC50, 3 h, control 1% DMSO = 1.0
Description: as §1

[6] = system: BAX, PMAIP1, HTRA2, TNFRSF 10B, ESRRBL1 mRNA; assay: Real-time RT-qPCR of apoptosis-related mRNAs in K562 cells; conditions: K562, 18 h, 3 10 µM, 6 5 µM (5× IC50), relative to 1% DMSO, normalized to GAPDH
Description: The total RNA pool was isolated from the cells lysates using TriPure Isolation Reagent (Roche, Basel, Switzerland) according to the manufacturer's instruction. Purity and integrity of RNA was checked spectrophotometrically with a NanoDrop ND-1000 spectrophotometer (Thermo Fisher Scientific, Waltham, MA, USA) and Agilent 2100 Bioanalyzer instrument. […] Reverse transcription and polymerase chain reaction (RT-PCR) amplification reactions were performed in one step using a LightCycler® 1.0 Instrument (Roche) and LightCycler RNA Amplification Kit SYBR Green I (Roche). […] The qRT-PCR reactions were optimized for each studied gene and performed according to a general protocol: a reverse transcription reaction (RT) for 10 min. at 55 °C, and a denaturation step for 30 s at 95 °C. The three steps of PCR quantification reaction included: I-denaturation (0 s at 95 °C), II-annealing (10 s at 60 °C), III-product extension (8 s at 72 °C), 45 cycles in total. Subsequent melting experiments were performed by quick denaturation at 95 °C, annealing over 10 s at 65 °C and heating up to 95 °C at 0.1 °C/s. The BAX, PMAIP1, HTRA2, TNFRSF 10B, and ESRRBL1 mRNA levels were normalized against a reference GAPDH mRNA. […]

[7] = system: caspase 3 and PARP; assay: Western blot of caspase 3 and PARP cleavage in K562 cells; conditions: 24 h
Description: 0.15 × 10^6 cells/ml were seeded on a 6-well plate (Nunclon, Thermo Fisher Scientific, Waltham, MA, USA). Following 24 hour preincubation the cells were treated with either the compound or 1% DMSO (control) for 24 or 48 hours. Cells were lysed using RIPA Buffer (Sigma) supplemented with Complete Protease Inhibitor Coctail (Roche, Basel, Switzerland) and PhosSTOP (Roche). Samples containing 20 µg protein were resuspended in 4× Laemmli’s Buffer (Biorad, Hercules, CA, USA), separated on 10% acrylamide gel (TGX Stain-Free Gel Kit, Biorad) and blotted onto nitrocellulose membrane (Panreac Applichem ITW, Darmstadt, Germany). Blots were blocked in 5% non-fat dry milk in TBST (1% (v/v) Tween-20, 140 mM NaCl, 25 mM Trizma, pH = 7.4 adjusted with HCl) for 1 h and incubated overnight with the antibodies against caspase-9 (9502), caspase-8 (9746), caspase-3 (9662), caspase-3 cleaved (9661) and β-actin (3700), all from Cell Signaling Technology, and antibody against poly(ADP-ribose)polymerase (PARP, 551025) from BD Pharmingen. Membranes were incubated with appropriate species-specific secondary antibodies conjugated with HRP (Cell Signaling Technology, Danvers, MA, USA). Blots were developed using ECL substrate (Biorad, Hercules, CA, USA). The experiment was performed in at least three independent biological replicates.

| Structure (SMILES) | activation of caspase 3/7 [1] | apoptotic cells, early (LR) and late (UR) [2] | apoptotic cells [3] | increase of activity of caspases 8/9 compared to the control [4] | activation of caspases 8/9 compared to the control [5] | expression of mRNAs of receptor (TNFRSF 10B, ESRRBL1) and mitochondrial (BAX, PMAIP1, HTRA2) apoptotic pathways [6] | caspase 3 and PARP cleavage (Western blot) [7] |
| --- | --- | --- | --- | --- | --- | --- | --- |
| CCC12C(=O)C(CC)(C(c3ccccc3)=C1c1ccccc1)C1C(=O)N(CCN3CCCCC3)C(=O)C12 (stereo not shown) [Compound 3] | strong activation | about 44% | about 76% | more than 2 fold | more than 10 fold | significantly induced |  |
| CCC12C(=O)C(CC)(C(c3ccccc3)=C1c1ccccc1)C1C(=O)N(CC(O)CNC(C)C)C(=O)C12 (stereo not shown) [Compound 5] | strong activation | more than 90% | ~78% |  |  |  | presence of cleavage fragments of PARP (85 kDa) and caspase 3 (17 kDa) |
| CN(C)CCN1C(=O)C2C(C1=O)C1(c3ccccc3)CC2(c2ccccc2)C(c2ccccc2)=C1c1ccccc1 (stereo not shown) [Compound 6] | strong activation | more than 90% | ~99% | more than 2 fold | more than 10 fold | significantly induced |  |
